Where “and” joins values, the source holds several entries; their conditions need not be identical. Equal entries are not always repeated. Where two headings read alike, the source gives them in different places.
Experiments:
[1] = tested on: SARS-CoV-2^WK521 in A549-ACE2-TMPRSS2 cells; assay: Antiviral assay, A549-ACE2-TMPRSS2 cells, WK521; assay type: cell-based
[2] = tested on: SARS-CoV-2 TKYS02037/ο BA.2; assay: microbe, parasite or virus in culture; assay type: cell-based
human calpain = target: T1, human calpain (Homo sapiens, UniProt P07384); assay: Human calpain activity assay; assay type: biochemical; conditions: for %inhibition against humanCalpain: triplicate
T1 sequence (P07384 2-714): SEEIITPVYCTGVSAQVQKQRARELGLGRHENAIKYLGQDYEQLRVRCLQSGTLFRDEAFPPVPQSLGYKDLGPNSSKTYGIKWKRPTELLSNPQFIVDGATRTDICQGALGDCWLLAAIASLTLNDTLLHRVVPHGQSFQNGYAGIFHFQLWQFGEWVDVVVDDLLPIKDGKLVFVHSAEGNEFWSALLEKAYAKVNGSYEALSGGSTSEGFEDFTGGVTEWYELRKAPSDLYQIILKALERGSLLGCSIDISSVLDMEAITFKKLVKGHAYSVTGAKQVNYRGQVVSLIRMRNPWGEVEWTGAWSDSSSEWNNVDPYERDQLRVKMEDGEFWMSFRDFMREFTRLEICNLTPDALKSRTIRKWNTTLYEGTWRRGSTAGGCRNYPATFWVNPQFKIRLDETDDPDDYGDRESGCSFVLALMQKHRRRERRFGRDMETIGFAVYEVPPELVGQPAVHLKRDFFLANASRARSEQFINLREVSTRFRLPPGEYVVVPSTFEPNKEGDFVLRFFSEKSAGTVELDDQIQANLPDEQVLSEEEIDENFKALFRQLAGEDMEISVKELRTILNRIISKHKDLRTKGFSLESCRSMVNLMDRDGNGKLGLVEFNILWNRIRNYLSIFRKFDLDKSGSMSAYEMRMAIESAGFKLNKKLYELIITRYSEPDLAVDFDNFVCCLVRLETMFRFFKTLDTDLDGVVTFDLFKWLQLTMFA
T1 sequence (P04632 1-268 partner): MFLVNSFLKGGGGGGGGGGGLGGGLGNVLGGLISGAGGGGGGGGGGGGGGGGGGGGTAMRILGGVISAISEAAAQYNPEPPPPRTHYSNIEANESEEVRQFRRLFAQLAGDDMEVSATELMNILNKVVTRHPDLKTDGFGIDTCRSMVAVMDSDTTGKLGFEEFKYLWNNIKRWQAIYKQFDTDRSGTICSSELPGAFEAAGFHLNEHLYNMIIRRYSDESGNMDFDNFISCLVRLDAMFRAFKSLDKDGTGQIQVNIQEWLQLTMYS

[3] = tested on: SARS-CoV-2 UT-NCD1757-1N/ο BA.2.75; assay: microbe, parasite or virus in culture; assay type: cell-based
[4] = tested on: SARS-CoV-2 TKYTS14631/ο BA.5; assay: microbe, parasite or virus in culture; assay type: cell-based
[5] = Pharmacokinetic study in PXB-mice (human liver-chimeric); conditions: for Vdss / AUC: mean ± S.E.; for AUC: n=3; for Plasma concentration: individual mice

CC(C)(C)[C@H](NC(=O)C(F)(F)F)C(=O)N1C[C@H]2[C@@H]([C@H]1C(=O)N[C@@H](C[C@@H]1CCNC1=O)C(=O)c1nc3c(F)cccc3s1)C2(C)C [TKB245]
EC50 ([1]; SARS-CoV-2^WK521, read-out: EC50, A549-ACE2-TMPRSS2): 2.7 ± 0.2 nM
EC50 ([1]; source data, listed as TKB0245, read-out: EC50, A549-AEC2-TMPRSS2, individual assays): 3 nM and 2.47 nM and 2.78 nM
EC50 ([1]; source data, read-out: EC50, A549-AEC2-TMPRSS2, Average): 2.75 nM
EC50 ([2]; read-out: EC50 against TKYVS2037/ο BA.2): 45 ± 14 nM
EC50 ([2]; read-out: EC50 ο BA2, Average): 45.3 nM
EC50 ([2]; read-out: EC50 ο BA2, individual assays): 60 nM and 32 nM and 44 nM
Effect on human calpain (in words) (human calpain): neither of human cysteine enzymes, cathepsin L and calpain, were significantly affected
%inhibition against humanCalpain (human calpain; 0.000128 µM): 0%
%inhibition against humanCalpain (human calpain; 0.00064 µM): 0%
%inhibition against humanCalpain (human calpain; 0.0032 µM): 0%
%inhibition against humanCalpain (human calpain; 0.08 µM): 0%
%inhibition against humanCalpain (human calpain; 0.4 µM): 0%
%inhibition against humanCalpain (human calpain; 2 µM): 9.6344% and 1.813%
IC50 (human calpain; 60 minute incubation, mean ± 1 S.D., n=3, read-out: IC50, human calpains): > 2000 nM
EC50 ([3]; read-out: EC50 against UT-NCD1757-1N/ο BA.2.75): 49 ± 5 nM
EC50 ([3]; read-out: EC50 ο BA2.75, Average): 49.3 nM
EC50 ([3]; read-out: EC50 ο BA2.75, individual assays): 55 nM and 44 nM
EC50 ([4]; read-out: EC50 against TKYTS14631/ο BA.5): 19 ± 5 nM
EC50 ([4]; read-out: EC50 ο BA5, Average): 18.8 nM
EC50 ([4]; read-out: EC50 ο BA5, individual assays): 16.1 nM and 24.7 nM and 15.6 nM
Cmax ([5]; N = 3 male PXB-mouse, 10 mg/kg p.o.): 1,901¶ ng/mL
T1/2 ([5]; N = 3 male PXB-mouse, 10 mg/kg, oral (p.o.) value for TKB245): 3.82¶ h
t1/2 ([5]; PXB-mice, 10 mg/kg i.v.): 1.25 h
Vdss ([5]; PXB-mice, 10 mg/kg i.v.): 0.0302 ± 0.00381 L/kg
AUC ([5]; PXB-mice, 10 mg/kg i.v.): 10700 ± 540 ng·h/mL
Vdss ([5]; PXB-mice, 10 mg/kg p.o.): 0.1941 ± 0.03543 L/kg
AUC ([5]; PXB-mice, 10 mg/kg p.o.): 5120 ± 430 ng·h/mL
Plasma concentration ([5]; PXB-mice, i.v. 10 mg/kg, 10 min): 8436.5 ng/mL
Plasma concentration ([5]; PXB-mice, i.v. 10 mg/kg, 10 min, listed as TKB0245, 10 mg/kg): 8433.5 ng/mL and 10627.1 ng/mL
Plasma concentration ([5]; PXB-mice, i.v. 10 mg/kg, 0.17 hr, listed as TKB0245, 10 mg/kg): 8440 ng/mL and 8430 ng/mL and 10630 ng/mL
Plasma concentration ([5]; PXB-mice, i.v. 10 mg/kg, 60 min, listed as TKB0245, 10 mg/kg): 2816 ng/mL and 2507.3 ng/mL and 3230 ng/mL
Plasma concentration ([5]; PXB-mice, i.v. 10 mg/kg, 1 hr, listed as TKB0245, 10 mg/kg): 2820 ng/mL and 2510 ng/mL and 3230 ng/mL
Plasma concentration ([5]; PXB-mice, i.v. 10 mg/kg, 240 min, listed as TKB0245, 10 mg/kg): 47 ng/mL and 52.3 ng/mL and 95 ng/mL
Plasma concentration ([5]; PXB-mice, i.v. 10 mg/kg, 4 hr, listed as TKB0245, 10 mg/kg): 0.05 µg/ml (2×) and 0.09 µg/ml
Plasma concentration ([5]; PXB-mice, i.v. 10 mg/kg, 480 min, listed as TKB0245, 10 mg/kg): 10.4 ng/mL and 14.8 ng/mL and 20 ng/mL
Plasma concentration ([5]; PXB-mice, i.v. 10 mg/kg, 8 hr, listed as TKB0245, 10 mg/kg): 0.01 µg/ml (2×) and 0.02 µg/ml
Plasma concentration ([5]; PXB-mice, i.v. 10 mg/kg, 1440 min, listed as TKB0245, 10 mg/kg): 13.6 ng/mL and 11.6 ng/mL and 12.4 ng/mL
Plasma concentration ([5]; PXB-mice, i.v. 10 mg/kg, 24 hr): 10 ng/mL
Plasma concentration ([5]; PXB-mice, p.o. 10 mg/kg, 10 min, listed as TKB0245, 10 mg/kg): 914.5 ng/mL and 1553.1 ng/mL and 2872.3 ng/mL
Plasma concentration ([5]; PXB-mice, p.o. 10 mg/kg, 0.17 hr, listed as TKB0245, 10 mg/kg): 910 ng/mL and 1550 ng/mL and 2870 ng/mL
